Measurements from patent EP3284739A1, “SUBSTITUTED (HET) ARYL COMPOUNDS AS PESTICIDES” (Bayer CropScience Aktiengesellschaft, priority 2017, dated 2018).

What was measured:
Ctenocephalides felis = Ctenocephalides felis oral test (feeding on treated citrated cattle blood); type: in vivo; conditions: 48 h, Aufwandmenge 100ppm, after 2 days, read-out: Wirkung (Abtötung)
Method: Zwecks Herstellung einer zweckmäßigen Wirkstoffzubereitung vermischt man 10 mg Wirkstoff mit 0,5 ml Dimethylsulfoxid. Durch Verdünnen mit citriertem Rinderblut erhält man die gewünschte Konzentration.
Ca. 20 nüchterne adulte Katzenflöhe (Ctenocephalides felis) werden in eine Kammer eingesetzt, die oben und unten mit Gaze verschlossen ist. Auf die Kammer wird ein Metallzylinder gestellt, dessen Unterseite mit Parafilm verschlossen ist. Der Zylinder enthält die Blut-Wirkstoffzubereitung, die von den Flöhen durch die Parafilmmembran aufgenommen werden kann.
Nach 2 Tagen wird die Abtötung in % bestimmt. Dabei bedeutet 100 %, dass alle Flöhe abgetötet wurden; 0 % bedeutet, dass keiner der Flöhe abgetötet wurde.

Spodoptera frugiperda = Spodoptera frugiperda spray test (maize leaf discs, caterpillars); type: in vivo; conditions: foliar, 168 h, Aufwandmenge 500g/ha, after 7 days, read-out: Wirkung
Excerpt: (§1) Zur Herstellung einer zweckmäßigen Wirkstoffzubereitung löst man 1 Gewichtsteil Wirkstoff mit den angegebenen Gewichtsteilen Lösungsmittel und füllt mit Wasser, welches eine Emulgatorkonzentration von 1000 ppm enthält, bis zum Erreichen der gewünschten Konzentration auf. Zur Herstellung weiterer Testkonzentrationen wird mit emulgatorhaltigem Wasser verdünnt.
Maisblattscheiben (Zea mays) werden mit einer Wirkstoffzubereitung der gewünschten Konzentration gespritzt und nach dem Abtrocknen mit Raupen des Heerwurms (Spodoptera frugiperda) besetzt.
Nach 7 Tagen wird die Wirkung in % bestimmt. Dabei bedeutet 100 %, dass alle Raupen abgetötet wurden; 0 % bedeutet, dass keine Raupe abgetötet wurde.

Phaedon cochleariae = Phaedon cochleariae spray test (Chinese cabbage leaf discs, larvae); type: in vivo; conditions: foliar, 168 h, read-out: Wirkung
Excerpt: as §1
Chinakohlblattscheiben (Brassica pekinensis) werden mit einer Wirkstoffzubereitung der gewünschten Konzentration gespritzt und nach dem Abtrocknen mit Larven des Meerrettichblattkäfers (Phaedon cochleariae) besetzt.
Nach 7 Tagen wird die Wirkung in % bestimmt. Dabei bedeutet 100 %, dass alle Käferlarven abgetötet wurden; 0 % bedeutet, dass keine Käferlarven abgetötet wurden.

[1] = logP by reversed-phase HPLC (LC-MS), neutral range; type: physicochemical; conditions: c18 hplc, ammonium bicarbonate/acetonitrile; pH 7.8, 0,001 molar aqueous Ammoniumhydrogencarbonat / Acetonitril, C 18, 55°C
Method: Die Messung der logP Werte erfolgt gemäß EEC Directive 79/831 Annex V.A8 durch HPLC (High Performance Liquid Chromatography) an einer Phasenumkehrsäule (C 18). Temperatur: 55°C. Die Bestimmung mit der LC-MS im sauren Bereich erfolgt bei pH 2,7 mit 0,1 % wässriger Ameisensäure und Acetonitril (enthält 0,1% Ameisensäure) als Eluenten; linearer Gradient von 10% Acetonitril bis 95% Acetonitril. In der Tabelle logP (HCOOH) genannt.
Die Bestimmung mit der LC-MS im neutralen Bereich erfolgt bei pH 7.8 mit 0,001 molarer wässriger Ammoniumhydrogencarbonat-Lösung und Acetonitril als Eluenten; linearer Gradient von 10 % Acetonitril bis 95 % Acetonitril. In der Tabelle logP (neutral) genannt.
Die Eichung erfolgt mit unverzweigten Alkan-2-onen (mit 3 bis 16 Kohlenstoffatomen), deren logP-Werte bekannt sind (Bestimmung der logP-Werte anhand der Retentionszeiten durch lineare Interpolation zwischen zwei aufeinander folgenden Alkanonen).

SMILES | mortality at 100 µg/mL (Ctenocephalides felis) [%] | mortality at 500 g/ha (Spodoptera frugiperda) [%] | mortality at 500 g/ha (Phaedon cochleariae) [%] | chromatographic logP [1]
N#Cc1ccc(CC(=O)Nc2cc(-c3ccc(OC(F)(F)F)cc3)cc(NC(=O)C3CC3)n2)cc1 [I-007] | 100 | 83 |  | 
CCC(=O)Nc1cc(-c2ccc(OC(F)(F)F)cc2)cc(NC(=O)C2CC2)n1 [I-020] |  | 100 | 100 | 
O=C(Nc1cc(-c2cc(F)c(C(F)(F)C(F)(F)F)cc2Cl)cc(NC(=O)C2CC2)n1)C1CC1 [I-042] |  | 100 |  | 
CC(C)C(=O)Nc1cc(NC(=O)C(C)C)cc(-c2ccc(C(F)(F)C(F)(F)F)c(F)c2)c1 [I-051] | 100 | 100 | 100 | 
CCC(=O)Nc1cc(-c2ccc(C(F)(F)C(F)(F)F)c(F)c2)cc(NC(=O)CC)n1 [I-058] |  | 100 | 100 | 
CC(C)(C(=O)Nc1cc(-c2ccc(OC(F)(F)F)cc2)cc(NC(=O)C2CC2)n1)c1ccccc1 [I-010] |  |  | 100 | 
O=C(Nc1cc(-c2ccc(OC(F)(F)F)cc2)cc(NC(=O)C2CC2(C2CC2)C2CC2)n1)C1CC1 (stereo not shown) [I-028] | 100 | 100 | 100 | 
Cc1cc(-c2cc(NC(=O)C3CC3)nc(NC(=O)C3CC3)c2)cc(F)c1C(F)(F)C(F)(F)F [I-040] |  | 100 | 100 | 
N#Cc1ccc(CC(=O)Nc2cc(NC(=O)C3CC3)cc(-c3ccc(C(F)(F)C(F)(F)F)c(F)c3)c2)cc1 [I-061] |  | 83 |  | 
Nc1cc(N)cc(-c2ccc(C(F)(F)C(F)(F)F)c(F)c2)c1 [3'-Fluor-4'-(pentafluorethyl)biphenyl-3,5-diamin] |  |  |  | 2.83
Nc1cc(-c2ccc(OC(F)(F)F)cc2)cc(NC(=O)C2CC2)n1 [N-{6-Amino-4-[4-(trifluormethoxy)phenyl]pyridin-2-yl}cyclopropancarboxamid] |  |  |  | 2.79
N#CC1(C(=O)Nc2cc(-c3ccc(C(F)(F)C(F)(F)F)c(F)c3)cc(NC(=O)C3CC3)n2)CC1 [I-057] |  | 100 |  | 
CCCC(=O)Nc1cc(-c2ccc(OC(F)(F)F)cc2)cc(NC(=O)C2CC2)n1 [I-023] | 100 | 100 | 100 | 
CC1(C)OB(c2cc(NC(=O)C3CC3)nc(NC(=O)C3CC3)c2)OC1(C)C [N,N'-[4-(4,4,5,5-Tetramethyl-1,3,2-dioxaborolan-2-yl)pyridin-2,6-diyl]dicyclopropancarboxamid] |  |  |  | 0.89
O=C(Nc1cc(-c2ccc(C(F)(F)C(F)(F)F)c(Cl)c2)cc(NC(=O)C2CC2)n1)C1CC1 [I-046] | 100 | 100 | 100 | 
CC1(C(=O)Nc2cc(-c3ccc(OC(F)(F)F)cc3)cc(NC(=O)C3CC3)n2)CC1 [I-004] | 100 | 100 | 100 | 
CC1(C(=O)Nc2cc(-c3ccc(OC(F)(F)F)cc3)cc(NC(=O)C3CC3)n2)CCCC1 [I-011] |  | 100 |  | 
N#Cc1ccc(C(=O)Nc2cc(-c3ccc(OC(F)(F)F)cc3)cc(NC(=O)C3CC3)n2)cc1 [I-027] | 100 | 100 | 100 | 
O=C(Nc1cc(-c2cc(F)c(C(F)(F)C(F)(F)F)cc2F)cc(NC(=O)C2CC2)n1)C1CC1 [I-048] |  | 100 | 83 | 
N#CCCC(=O)Nc1cc(-c2ccc(OC(F)(F)F)cc2)cc(NC(=O)C2CC2)n1 [I-025] |  | 100 | 83 | 
CC(C)(C(=O)Nc1cc(-c2ccc(OC(F)(F)F)cc2)cc(NC(=O)C2CC2)n1)C(F)(F)F [I-016] |  | 100 | 100 | 
CC(C)C(=O)Nc1cc(N)cc(-c2ccc(C(F)(F)C(F)(F)F)c(F)c2)c1 [N-[5-Amino-3'-fluor-4'-(pentafluorethyl)biphenyl-3-yl]-2-methylpropanamid] |  |  |  | 3.32
O=C(Nc1cc(-c2cc(F)c(C(F)(F)C(F)(F)F)c(Cl)c2)cc(NC(=O)C2CC2)n1)C1CC1 [I-053] |  | 100 | 100 | 
CC(C)C(=O)Nc1cc(-c2ccc(C(F)(F)C(F)(F)F)c(F)c2)cc(NC(=O)C2CC2)n1 [I-054] |  | 100 | 100 | 

SMILES | mortality at 100 µg/mL (Ctenocephalides felis) [%] | mortality at 500 g/ha (Spodoptera frugiperda) [%] | mortality at 500 g/ha (Phaedon cochleariae) [%] | chromatographic logP [1]
O=C(Nc1cc(-c2ccc(OC(F)(F)F)cc2)cc(NC(=O)C2(Cl)CC2)n1)C1CC1 [I-013] |  | 100 |  | 
O=C(Nc1cc(Br)cc(NC(=O)C2CC2)n1)C1CC1 [N,N'-(4-Brompyridin-2,6-diyl)dicyclopropancarboxamid] |  |  |  | 2.35
O=C(Nc1cc(-c2ccc(OC(F)(F)F)cc2)c(Cl)c(NC(=O)C2CC2)n1)C1CC1 [I-038] |  | 83 |  | 
N#Cc1cccc(CC(=O)Nc2cc(-c3ccc(OC(F)(F)F)cc3)cc(NC(=O)C3CC3)n2)c1 [I-003] | 100 | 100 |  | 
CCC(=O)Nc1cc(-c2ccc(C(F)(F)C(F)(F)F)c(F)c2)cc(NC(=O)C2CC2)n1 [I-055] | 100 | 100 | 100 | 
O=C(Nc1cc(-c2c(F)cc(C(F)(F)C(F)(F)F)c(F)c2F)cc(NC(=O)C2CC2)n1)C1CC1 [I-062] |  | 100 | 100 | 
CC(=O)Nc1cc(-c2ccc(OC(F)(F)F)cc2)cc(NC(=O)C2CC2)n1 [I-022] | 100 | 100 | 100 | 
CC(=O)Nc1cc(-c2ccc(C(F)(F)C(F)(F)F)c(F)c2)cc(NC(C)=O)n1 [I-059] |  | 100 | 100 | 
CC(=O)Nc1cc(-c2ccc(C(F)(F)C(F)(F)F)c(F)c2)cc(NC(=O)C2CC2)n1 [I-056] |  | 100 | 100 | 
CC(C)C(=O)Nc1cc(-c2ccc(C(F)(F)C(F)(F)F)c(F)c2)cc(NC(=O)C(C)C)n1 [I-052] | 100 | 100 | 100 | 
O=C(Nc1cc(-c2ccc(OC(F)(F)F)cc2)cc(NC(=O)C2CC2)n1)c1ccccc1 [I-026] | 100 | 100 | 83 | 
O=C(Cc1ccc(C(F)(F)F)cc1)Nc1cc(-c2ccc(OC(F)(F)F)cc2)cc(NC(=O)C2CC2)n1 [I-002] |  | 100 |  | 
O=C(Nc1cc(NC(=O)C2CC2)cc(-c2ccc(C(F)(F)C(F)(F)F)c(F)c2)c1)C1CC1 [I-050] | 100 | 100 | 100 | 
CCCCC(=O)Nc1cc(-c2ccc(OC(F)(F)F)cc2)cc(NC(=O)C2CC2)n1 [I-019] |  | 100 | 100 | 
Cc1cc(-c2cc(NC(=O)C3CC3)nc(NC(=O)C3CC3)c2)ccc1C(F)(F)C(F)(F)F [I-043] | 100 | 100 | 100 | 
O=C(Nc1cc(-c2ccc(C(F)(F)C(F)(F)F)c(F)c2F)cc(NC(=O)C2CC2)n1)C1CC1 [I-045] |  | 100 | 100 | 
CC(C)(C#N)C(=O)Nc1cc(-c2ccc(OC(F)(F)F)cc2)cc(NC(=O)C2CC2)n1 [I-009] |  | 100 |  | 
N#CC1(C(=O)Nc2cc(-c3ccc(OC(F)(F)F)cc3)cc(NC(=O)C3CC3)n2)CC1 [I-005] | 100 | 100 | 83 | 
O=C(Nc1cc(-c2cc(F)c(C(F)(F)C(F)(F)F)c(F)c2F)cc(NC(=O)C2CC2)n1)C1CC1 [I-047] |  | 83 |  | 
O=C(Nc1cc(-c2ccc(OC(F)(F)F)cc2)cc(NC(=O)C2CC2)n1)C1CCCC1 [I-021] | 100 | 100 |  | 
CC(C)C(=O)Nc1cc(-c2ccc(OC(F)(F)F)cc2)cc(NC(=O)C2CC2)n1 [I-018] | 100 | 100 | 100 | 
O=C(Nc1cc(-c2cc(F)c(C(F)(F)C(F)(F)F)c(F)c2)cc(NC(=O)C2CC2)n1)C1CC1 [I-044] |  | 100 |  | 
O=C(Nc1cc(-c2c(F)cc(C(F)(F)C(F)(F)F)cc2F)cc(NC(=O)C2CC2)n1)C1CC1 [I-041] |  | 83 |  | 
